Entries after “also recorded” stand apart in the source; their conditions may differ.

Here are results for 14 molecules from article PMC7680422 (European journal of medicinal chemistry, 2020).

The subject of data set [1] is methamphetamine self-administration. Conditions: short access and long access groups; cited from earlier work.
Data set [2] can be described thus: Phase I metabolic stability in rat liver microsomes. Type of data set: in vitro ADME.
Data set [3] is described as follows: Phase I metabolic stability in mouse liver microsomes. The format is in vitro ADME. A general note: Liver microsomes are vesicles of endoplasmic reticulum, rich in cytochrome P450 enzymes.
Another data set deals with Swiss Webster mice. Kind of data set: Locomotor activity studies in mice. To be noted: i.p., doses up to 30 mg/kg, distance travelled.
The target in data set [4] is dopamine transporter (DAT) (Rattus norvegicus, UniProt P23977). Kind of data set: DAT binding assay, [3H]WIN35,428, rat striatum membranes.
Sequence of dopamine transporter (DAT) (P23977 whole entry): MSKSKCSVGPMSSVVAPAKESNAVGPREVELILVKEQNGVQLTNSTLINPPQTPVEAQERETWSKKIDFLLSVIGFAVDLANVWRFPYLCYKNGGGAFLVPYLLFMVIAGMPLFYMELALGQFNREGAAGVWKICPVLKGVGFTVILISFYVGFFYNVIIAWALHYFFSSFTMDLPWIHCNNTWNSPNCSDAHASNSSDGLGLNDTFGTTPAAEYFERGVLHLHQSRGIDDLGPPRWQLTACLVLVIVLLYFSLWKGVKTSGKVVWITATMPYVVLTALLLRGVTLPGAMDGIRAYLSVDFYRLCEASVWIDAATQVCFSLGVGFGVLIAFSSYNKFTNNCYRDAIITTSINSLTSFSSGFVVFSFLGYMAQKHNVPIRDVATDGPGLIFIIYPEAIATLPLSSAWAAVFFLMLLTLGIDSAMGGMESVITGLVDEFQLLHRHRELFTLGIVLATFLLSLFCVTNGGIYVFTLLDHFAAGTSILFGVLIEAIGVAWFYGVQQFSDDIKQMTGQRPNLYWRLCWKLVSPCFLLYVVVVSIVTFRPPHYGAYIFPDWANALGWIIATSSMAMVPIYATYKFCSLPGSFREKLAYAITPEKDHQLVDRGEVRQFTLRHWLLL

For the molecule `CC(O)CN1CCN(CC[S+]([O-])C(c2ccc(F)cc2)c2ccc(F)cc2)CC1` (stereo not shown) [Compound 1], in data set [1], the “attenuation of methamphetamine self-administration (in words)” value (“attenuation” below) is reported as “effective in attenuating this behavior in both groups”.

With `[O-][S+](CCN1CCN(CC(O)Cc2ccccc2)CC1)C(c1ccc(F)cc1)c1ccc(F)cc1` (stereo not shown) [Compound 2], in data set [1], the “attenuation” value is listed as “not effective in either rodent population”.

As for `CC(O)CN1CCN(CCSC(c2ccc(F)cc2)c2ccc(F)cc2)CC1` (stereo not shown) [Compound 3a], the “attenuation” value in data set [1] is “effective only in the long access group”.

For the molecule `Fc1ccc(CN2CCC(NCCSC(c3ccc(F)cc3)c3ccc(F)cc3)CC2)cc1` [Compound 6b, N-(2-((Bis(4-fluorophenyl)methyl)thio)ethyl)-1-(4-fluorobenzyl)piperidin-4-amine], in data set [2], the “metabolic stability / susceptibility to phase I metabolism (in words)” value (shortened to “metabolic stability / susceptibility”) is “relatively metabolically stable”.

For the molecule `[O-][S+](CCNC1CCN(Cc2ccc(F)cc2)CC1)C(c1ccc(F)cc1)c1ccc(F)cc1` (stereo not shown) [Compound 7, N-(2-((Bis(4-fluorophenyl)methyl)sulfinyl)ethyl)-1-(4-fluorobenzyl)piperidin-4-amine], the “metabolic stability / susceptibility” value in data set [3] was “susceptibility to phase I metabolism; also recorded: significantly less stable”; in data set [2], “relatively metabolically stable”. In addition, the “stimulation of ambulatory activity (in words)” value (“stimulation” below) in the data set with Swiss Webster mice was “only minimal stimulation of ambulatory activity”.

For the molecule `OC(Cc1ccccc1)CN1CCC(NCCSC(c2ccc(F)cc2)c2ccc(F)cc2)CC1` (stereo not shown) [Compound 10, 1-(4-((2-((Bis(4-fluorophenyl)methyl)thio)ethyl)amino)piperidin-1-yl)-3-phenylpropan-2-ol], in data set [2], the “metabolic stability / susceptibility” value is recorded as “relatively metabolically stable”.

Turning to `[O-][S+](CCNC1CCN(CC(O)Cc2ccccc2)CC1)C(c1ccc(F)cc1)c1ccc(F)cc1` (stereo not shown) [Compound 11, 1-(4-((2-((Bis(4-fluorophenyl)methyl)sulfinyl)ethyl)amino)piperidin-1-yl)-3-phenylpropan-2-ol], the “metabolic stability / susceptibility” value in data set [2] was “less stable; also recorded: susceptibility to phase I metabolism”.

For the molecule `OC(CNC1CCN(CCSC(c2ccc(F)cc2)c2ccc(F)cc2)CC1)Cc1ccccc1` (stereo not shown) [Compound 16, 1-((1-(2-((Bis(4-fluorophenyl)methyl)thio)ethyl)piperidin-4-yl)amino)-3-phenylpropan-2-ol], in data set [2], the “metabolic stability / susceptibility” value is “relatively metabolically stable”.

Regarding `O=C(c1ccccc1)N1CCC(NCCSC(c2ccc(F)cc2)c2ccc(F)cc2)CC1` [Compound 19a, (4-((2-((Bis(4-fluorophenyl)methyl)thio)ethyl)amino)piperidin-1-yl)(phenyl)methanone], in data set [2], the “metabolic stability / susceptibility” value is on record as “less stable; also recorded: susceptibility to phase I metabolism”.

For `O=C(c1ccc(F)cc1)N1CCC(NCCSC(c2ccc(F)cc2)c2ccc(F)cc2)CC1` [Compound 19b, (4-((2-((Bis(4-fluorophenyl)methyl)thio)ethyl)amino)piperidin-1-yl)(4-fluorophenyl)methanone], the “metabolic stability / susceptibility” value in data set [2] is given as “less stable; also recorded: susceptibility to phase I metabolism”.

For the molecule `O=C(c1ccccc1)N1CCC(NCC[S+]([O-])C(c2ccc(F)cc2)c2ccc(F)cc2)CC1` (stereo not shown) [Compound 21a, (4-((2-((Bis(4-fluorophenyl)methyl)sulfinyl)ethyl)amino)piperidin-1-yl)(phenyl)methanone], the “DAT over SERT selectivity” value in data set [4] is listed as ~100 fold.

With `O=C(c1ccc(F)cc1)N1CCC(NCC[S+]([O-])C(c2ccc(F)cc2)c2ccc(F)cc2)CC1` (stereo not shown) [Compound 21b, (4-((2-((Bis(4-fluorophenyl)methyl)sulfinyl)ethyl)amino)piperidin-1-yl)(4-fluorophenyl)methanone], the figures for the “metabolic stability / susceptibility” value in data set [3] and in data set [2] were “susceptibility to phase I metabolism; also recorded: significantly less stable” and “relatively metabolically stable”, respectively. Moreover, in the data set on Swiss Webster mice, the “stimulation” value is “only minimal stimulation of ambulatory activity”.

Regarding `O=C(c1ccc(F)cc1F)N1CCC(NCCSC(c2ccc(F)cc2)c2ccc(F)cc2)CC1` [Compound 33, (4-((2-((Bis(4-fluorophenyl)methyl)thio)ethyl)amino)piperidin-1-yl)(2,4-difluorophenyl)methanone], the “metabolic stability / susceptibility” value in data set [3] is “susceptibility to phase I metabolism; also recorded: significantly less stable”. In addition, the “stimulation” value in the data set with Swiss Webster mice is listed as “only minimal stimulation of ambulatory activity”.

As to `COC(=O)[C@H]1[C@@H](OC(=O)c2ccccc2)C[C@@H]2CC[C@H]1N2C` [cocaine, reference compound], in the data set with Swiss Webster mice, the “stimulation” value was “large, significant increase in ambulatory activity”.
